Laboratory results: PubChem BioAssay (NCI)
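Cultured in 96-well plates, cells were exposed to test compound for 48 hours across five concentrations. The concentration for 50% growth inhibition is given as GI50. At the TGI there is no net growth.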

What was measured:
Test in all cases: NCI tumour cell line growth inhibition, 48 h
OVCAR-8 ovarian = test system: OVCAR-8 ovarian
SN12C renal = test system: SN12C renal
NCI/ADR-RES ovarian = test system: NCI/ADR-RES ovarian
UACC-62 melanoma = test system: UACC-62 melanoma
786-0 renal = test system: 786-0 renal
MDA-MB-231 breast = test system: MDA-MB-231 breast
OVCAR-5 ovarian = test system: OVCAR-5 ovarian
CAKI-1 renal = test system: CAKI-1 renal
HOP-92 NSCLC = test system: HOP-92 NSCLC
PC-3 prostate = test system: PC-3 prostate
BT-549 breast = test system: BT-549 breast
MCF7 breast = test system: MCF7 breast
SR leukemia = test system: SR leukemia
MALME-3M melanoma = test system: MALME-3M melanoma
EKVX NSCLC = test system: EKVX NSCLC
HCT-116 colon = test system: HCT-116 colon
HL-60(TB) leukemia = test system: HL-60(TB) leukemia
SK-OV-3 ovarian = test system: SK-OV-3 ovarian
LOX IMVI melanoma = test system: LOX IMVI melanoma
ACHN renal = test system: ACHN renal
SW-620 colon = test system: SW-620 colon
OVCAR-3 ovarian = test system: OVCAR-3 ovarian
COLO 205 colon = test system: COLO 205 colon
DU-145 prostate = test system: DU-145 prostate
RXF 393 renal = test system: RXF 393 renal
SK-MEL-5 melanoma = test system: SK-MEL-5 melanoma
M14 melanoma = test system: M14 melanoma
NCI-H23 lung = test system: NCI-H23 lung
SF-295 CNS = test system: SF-295 CNS
RPMI-8226 leukemia = test system: RPMI-8226 leukemia
U251 CNS = test system: U251 CNS
TK-10 renal = test system: TK-10 renal
MOLT-4 leukemia = test system: MOLT-4 leukemia
SK-MEL-2 melanoma = test system: SK-MEL-2 melanoma
OVCAR-4 ovarian = test system: OVCAR-4 ovarian
SF-268 CNS = test system: SF-268 CNS
CCRF-CEM leukemia = test system: CCRF-CEM leukemia
K-562 leukemia = test system: K-562 leukemia
UO-31 renal = test system: UO-31 renal
KM12 colon = test system: KM12 colon
UACC-257 melanoma = test system: UACC-257 melanoma
NCI-H226 lung = test system: NCI-H226 lung
NCI-H460 lung = test system: NCI-H460 lung
SNB-19 CNS = test system: SNB-19 CNS
HOP-62 NSCLC = test system: HOP-62 NSCLC
A549 NSCLC = test system: A549 NSCLC
HT29 colon = test system: HT29 colon
HCT-15 colon = test system: HCT-15 colon
SF-539 CNS = test system: SF-539 CNS
HCC-2998 colon = test system: HCC-2998 colon
SNB-75 CNS = test system: SNB-75 CNS
HS 578T breast = test system: HS 578T breast
SK-MEL-28 melanoma = test system: SK-MEL-28 melanoma
A498 renal = test system: A498 renal
T-47D breast = test system: T-47D breast
IGROV1 ovarian = test system: IGROV1 ovarian
MDA-MB-435 = test system: MDA-MB-435
NCI-H522 lung = test system: NCI-H522 lung

## CN(C)CCCOc1c2ccc(Cl)cc2nc2c1oc1ccc(Cl)cc12
OVCAR-8 ovarian
  GI50: 1.49 µM
  TGI: 6.04 µM
SN12C renal
  GI50: 1.46 µM
  TGI: 5.55 µM
NCI/ADR-RES ovarian
  GI50: 3.72 µM
  TGI: 17.7 µM
UACC-62 melanoma
  GI50: 4.85 µM
  TGI: 10.1 µM
786-0 renal
  GI50: 4.12 µM
  TGI: 16.1 µM
MDA-MB-231 breast
  GI50: 1.92 µM
  TGI: 6.5 µM
OVCAR-5 ovarian
  GI50: 2.46 µM
  TGI: 6.76 µM
CAKI-1 renal
  GI50: 1.39 µM
  TGI: 5.96 µM
HOP-92 NSCLC
  GI50: 1.08 µM
  TGI: 12.9 µM
PC-3 prostate
  GI50: 1.69 µM
  TGI: 9.2 µM
BT-549 breast
  GI50: 7.26 µM
  TGI: > 30.5 µM
MCF7 breast
  GI50: 1.24 µM
  TGI: 4.9 µM
SR leukemia
  GI50: 1.18 µM
  TGI: 5.33 µM
MALME-3M melanoma
  GI50: 3.24 µM
  TGI: 16.2 µM
EKVX NSCLC
  GI50: 2.46 µM
  TGI: 7.3 µM
HCT-116 colon
  GI50: 3.73 µM
  TGI: 23.6 µM
HL-60(TB) leukemia
  GI50: 2.95 µM
  TGI: 15.7 µM
SK-OV-3 ovarian
  GI50: 3.79 µM
  TGI: 15 µM
LOX IMVI melanoma
  GI50: 0.857 µM
  TGI: 3.56 µM
ACHN renal
  GI50: 2.51 µM
  TGI: 13.2 µM
SW-620 colon
  GI50: 0.9 µM
  TGI: 4.36 µM
OVCAR-3 ovarian
  GI50: 2.43 µM
  TGI: 7.57 µM
COLO 205 colon
  GI50: 1.33 µM
  TGI: 7.87 µM
DU-145 prostate
  GI50: 4.21 µM
  TGI: 14.4 µM
RXF 393 renal
  GI50: 1.8 µM
  TGI: 4.88 µM
SK-MEL-5 melanoma
  GI50: 4.48 µM
  TGI: 8.96 µM
M14 melanoma
  GI50: 3.15 µM
  TGI: 9.37 µM
NCI-H23 lung
  GI50: 3.43 µM
  TGI: 15.6 µM
SF-295 CNS
  GI50: 2.12 µM
  TGI: 6.44 µM
RPMI-8226 leukemia
  GI50: 1.97 µM
U251 CNS
  GI50: 3.23 µM
  TGI: 12.9 µM
TK-10 renal
  GI50: 6.62 µM
  TGI: 21.1 µM
MOLT-4 leukemia
  GI50: 1.23 µM
  TGI: 6.58 µM
SK-MEL-2 melanoma
  GI50: 4.66 µM
  TGI: 12.4 µM
OVCAR-4 ovarian
  GI50: 2.1 µM
  TGI: 6.4 µM
SF-268 CNS
  GI50: 4.85 µM
  TGI: 21.8 µM
CCRF-CEM leukemia
  GI50: 2.18 µM
  TGI: 14.1 µM
K-562 leukemia
  GI50: 1.05 µM
  TGI: 5.07 µM
UO-31 renal
  GI50: 1.35 µM
  TGI: 11.7 µM
KM12 colon
  GI50: 2.22 µM
  TGI: 7.52 µM
UACC-257 melanoma
  GI50: 3.71 µM
  TGI: 9.21 µM
NCI-H226 lung
  GI50: 1.99 µM
  TGI: 8.13 µM
NCI-H460 lung
  GI50: 1.08 µM
  TGI: 3.92 µM
SNB-19 CNS
  GI50: 1.89 µM
  TGI: 6.61 µM
HOP-62 NSCLC
  GI50: 3.21 µM
  TGI: 22 µM
A549 NSCLC
  GI50: 2.73 µM
  TGI: 11.8 µM
HT29 colon
  GI50: 1.22 µM
  TGI: 5.15 µM
HCT-15 colon
  GI50: 1.35 µM
  TGI: 5.41 µM
SF-539 CNS
  GI50: 3.37 µM
  TGI: 13.8 µM
HCC-2998 colon
  GI50: 4.18 µM
  TGI: 15.5 µM
SNB-75 CNS
  GI50: 1.41 µM
  TGI: 6.65 µM
HS 578T breast
  GI50: 1.98 µM
  TGI: 9.43 µM
SK-MEL-28 melanoma
  GI50: 5.09 µM
  TGI: 9.67 µM
A498 renal
  GI50: 6.44 µM
  TGI: 27.7 µM
T-47D breast
  GI50: 12.7 µM
  TGI: > 59.1 µM
IGROV1 ovarian
  GI50: 2.34 µM
  TGI: 12.5 µM
MDA-MB-435
  GI50: 2.17 µM
  TGI: 6.39 µM
NCI-H522 lung
  GI50: 4.33 µM
  TGI: 23.5 µM
